One compound from ChEMBL document CHEMBL4270572, “Synthesis and biological evaluation of novel larotaxel analogues” (Eur J Med Chem, 2018) can be followed below.

The nature of series [1]: in vivo. The following applies: beagle, dog, iv, 2.4 mg/kg.
A short description of series [2]: in vivo. The following applies: beagle, dog, iv, 1.2 mg/kg.
A short description of series [3]: in vivo. As to conditions: beagle, dog, iv, 0.6 mg/kg.
A short description of series [4]: in vivo. The following applies: beagle, dog, iv, 2.4 mg/kg. The source holds these as a separate data set.
The nature of series [5]: in vivo. The following applies: beagle, dog, iv, 1.2 mg/kg. This is another data set of the same source.
Series [6] in a line: in vivo. As to conditions: beagle, dog, iv, 2.4 mg/kg. This is another data set of the same source.
Series [7] can be described thus: in vivo. The following applies: beagle, dog, iv, 1.2 mg/kg. The source holds these as a separate data set.
Series [8] in a line: in vivo. As to conditions: beagle, dog, iv, 0.6 mg/kg. This is another data set of the same source.
The nature of series [9]: in vivo. The following applies: beagle, dog, iv, 0.6 mg/kg. The source holds these as a separate data set.
A short description of series [10]: in vivo. The following applies: beagle, dog, iv, 2.4 mg/kg. This is another data set of the same source.
Series [11] can be described thus: in vivo. As to conditions: beagle, dog, iv, 0.6 mg/kg. This is another data set of the same source.
A short description of series [12]: in vivo. The following applies: beagle, dog, iv, 1.2 mg/kg. This is another data set of the same source.

One may read the Tmax as the time at which the peak concentration occurs. In general, half-life refers to the time in which the quantity being followed falls by half. A low value points to rapid decline. Usually Vd stands for the apparent volume that relates the amount in the body to the concentration in plasma or blood. Low readings indicate confinement near the circulation, high ones extensive tissue distribution. By Cmax is commonly meant the peak of the concentration-time curve.

`CC(=O)O[C@H]1C(=O)[C@]23C[C@H]2C[C@H]2OC[C@@]2(OC(C)=O)[C@H]3[C@H](OC(=O)c2ccccc2)[C@]2(O)C[C@H](OC(=O)[C@H](O)[C@H](CC(C)C)NC(=O)OC(C)(C)C)C(C)=C1C2(C)C`: the Tmax came to 0.97 h in “in vivo [1]”, 0.81 h in the series “in vivo [7]” and 0.89 h in the series “in vivo [9]”. Besides, the half-life in “in vivo [2]” is 11.2 h; in “in vivo [10]” it was 8.35 h; in the series “in vivo [11]”, 6.06 h. The Vd in “in vivo [3]” was 45.6 L/kg; in “in vivo [4]” it was 30.8 L/kg; in “in vivo [12]”, 34.8 L/kg. For the same compound, the maximum concentration (Cmax) in the series “in vivo [5]” was 388 ng/mL; in the series “in vivo [6]”, 974 ng/mL; in the series “in vivo [8]”, 67.1 ng/mL.
